The source of these data is PMC10587436, “A bacterial quorum sensing signal is a potent inhibitor of de novo pyrimidine biosynthesis in the globally abundant Emiliania huxleyi” (Frontiers in Microbiology, 2023).

Test [1] deals with T1, E. huxleyi dihydroorotate dehydrogenase (EhDHODH).
T1 construct: ΔN20EhDHODH (first 20 residues truncated, start at residue 21; N-terminal eight-residue histidine tag)
Put plainly: DCIP colorimetric DHODH activity assay, Morrison tight-binding fit; IC50 […]. Format: biochemical, Emiliania huxleyi.

In test [2] the target is E. huxleyi dihydroorotate dehydrogenase (EhDHODH).

Regarding `CCCCCCCc1cc(=O)c2ccccc2[nH]1` [HHQ], the affinity in test [1] corresponds to a Ki of 0.0023 ± 0.0007 µM.
As to `Cc1c(-c2ccc(-c3ccccc3F)cc2)nc2ccc(F)cc2c1C(=O)O` [brequinar], inhibition in test [2] was half-maximal at 43 ± 11 µM (IC50).
